# Test results taken from PubChem BioAssay AID1645848.
# Settings: buffer; pH 7.4; 6.0 h; 150.0 µM
row,Structure (SMILES),solubility kinetic [µg/mL]
1,O=C(Cc1ccc(Cl)c(Cl)c1)Nc1ccc(S(=O)(=O)Nc2ccccc2)cc1,< 1
2,O=C(CCCN1CCC(O)(c2ccc(Cl)cc2)CC1)c1ccc(F)cc1,6.42
3,Cc1cc(-c2nc(Nc3ccc(F)c(F)c3)c3ccccc3n2)cc(C)n1,< 1
4,O=c1c(O)c(-c2ccc(O)cc2)oc2cc(O)cc(O)c12,1.35
5,Nc1ccc(-c2cccc3c(=O)cc(N4CCOCC4)oc23)cc1,> 48
6,CCOc1ccc(CCNC(=O)c2cc3sccc3n2Cc2ccc(-n3cncn3)cc2)cc1OCC,< 1
7,NS(=O)(=O)c1ccc(Cc2c(-c3cccc(-c4ccccc4)c3)nn(-c3nc(C(=O)O)cs3)c2CC2CC2)cc1,> 84
8,Cc1ccc(-c2csc(Nc3ccc(S(=O)(=O)Nc4nccs4)cc3)n2)cc1C,< 1
9,Cc1ccc(S(=O)(=O)Nc2cnccc2C(=O)Nc2nc(-c3ccccc3F)cs2)cc1,< 1
10,COc1cccc(CNc2ccc(S(=O)(=O)Nc3nc(C)cs3)cc2)c1O,42.7
11,CC1CCC(n2c3cnccc3c3cnc(Nc4ccc5c(n4)CCN(C(=O)CO)C5)nc32)CC1 (stereo unspecified),< 1
12,CC1=NN(c2ccc(C(=O)O)cc2)C(=O)/C1=C/c1ccc(-c2cc(C)c(C)cc2[N+](=O)[O-])o1,1.01
13,COc1ccc2[nH]c(=O)c(-c3noc(-c4cccs4)n3)cc2c1,< 1
14,CC(=O)NCCNC[C@@H]1C=C(C)[C@H](Cc2nnc(-c3ccccc3)o2)C[C@H]1C(C)C,> 61
15,Cc1ccc(S(=O)(=O)Nc2ccc(F)cc2C(=O)Nc2nc(-c3ccccc3)cs2)cc1,< 1
16,COc1ccc(NC(=O)c2[nH]c(C)c(C(C)=O)c2C)cc1S(=O)(=O)N(C)C,3.68
17,Fc1cccc(CN2CCNc3cc(Nc4ccccc4)ncc3C2)c1,27.3
18,COc1ccc(OC)c(-n2c3c(cc(-c4nc(-c5ccc(Cl)cc5)cs4)c2=O)C(=O)CC(C)(C)C3)c1,< 1
19,Cc1noc(C)c1-c1ccc2ncnc(NCc3cccc(Cl)c3)c2c1,< 1
20,CC1(C)CC2CC(C)(CN2S(=O)(=O)c2ccc(C(=O)Nc3ccc(Cl)cc3)cc2)C1 (stereo unspecified),< 1
21,NC(=O)c1ccc(-c2ncc3cnc(-c4cccc(F)c4)cn23)cc1,10.9
22,O=C(CCCCn1c(=O)[nH]c2ccsc2c1=O)N1CCN(c2cccc(Cl)c2)CC1,11.9
23,O=C(c1nc(-c2cccnc2)c2ccccn12)N1CCOCC1,45.2
24,CCOC(=O)N1CCN(C(=O)Cn2sc3nc(C)cc(C)c3c2=O)CC1,39
25,CCOc1cc(=O)n2c(c1C(=O)Nc1cc(OC)c(Cl)cc1OC)CCCC2,> 60
26,CCOc1ccc(CCNC(=O)c2cc3ccccc3n2C)cc1OCC,1.63

row,Structure (SMILES),solubility kinetic [µg/mL]
1,Cc1ccnc(NC(=S)N2CCN(c3ccc(N)cc3)CC2)c1,> 48
2,O=C1Cc2cc(C(=O)c3ccco3)ccc2N1,> 34
3,O=C(Nc1ccc(N2CCC(N3CCCCC3)CC2)c(C(=O)O)c1)c1ccc(Br)cc1,34
4,Cc1ccc(NS(=O)(=O)c2ccccc2C(=O)Nc2nc(-c3ccccc3)cs2)cc1,< 1
5,Clc1ccc2ncc(-c3cccc(NC4CCNC4)n3)n2c1 (stereo unspecified),> 46
6,Fc1cc(Nc2nc(-c3ccncc3)nc3ccccc23)ccc1-c1ccc(F)c(F)c1F,< 1
7,NC1CCC(Nc2nc(Nc3ccc(C(=O)N4CCCCC4)cc3)c3ncn(-c4cccc(F)c4)c3n2)CC1 (stereo unspecified),57.5
8,Cc1ccccc1NC(=O)Nc1cccs1,> 34
9,CC(=O)c1c(C)[nH]c(C(=O)Nc2cccc([S+](=O)([O-])N3CCC(F)(F)CC3)c2)c1C,8.98
10,Cc1ccc(-c2cc(C(=O)Nc3ccc(S(N)(=O)=O)cc3)c3ccccc3n2)cc1C,< 1
11,CC(=O)Nc1cccc(Nc2nc3ccccc3n3c(C)nnc23)c1,< 1
12,O=C1NC(=S)NC(=O)C1=Cc1cccn1-c1ccc(O)cc1,37
13,CC(=O)c1c(C)c(C(=O)Nc2cccc([S+](=O)([O-])N3CCCCCC3)c2)n(C)c1C,< 1
14,NC(=O)C1CCN(c2nc(-c3ccc4c(c3)OCO4)cs2)CC1,> 49
15,Cn1c2cc(S(C)=O)sc2c2cnn(Cc3cccc(N)c3)c(=O)c21 (stereo unspecified),> 55
16,Cc1cccc(-c2cc(NC(=O)c3ccccc3C)n(-c3ccccc3)n2)c1,< 1
17,O=C1Nc2ccccc2/C1=C/c1cc(Cl)c(O)c(Cl)c1,> 45
18,Fc1cccc(F)c1Nc1nc(-c2ccncc2)nc2ccccc12,< 1
19,CCOc1ccc(CCNC(=O)c2cc3sccc3n2Cc2ccc(F)cc2F)cc1OCC,< 1
20,COc1ccc2nc(C)cc(Nc3ccc(Cl)c(Cl)c3)c2c1,< 1
21,Cc1ccc(C(=O)Nc2ccc3oc(-c4cccnc4)nc3c2)cc1[N+](=O)[O-],< 1
22,CCC1=Nc2cc(C(=O)NCCCOC)ccc2Sc2ccc(Br)cc21,6.63
23,Cc1ccc(S(=O)(=O)Nc2ccc(Br)cc2C(=O)Nc2nc(-c3ccccc3)cs2)cc1,< 1
24,CCN(CC)S(=O)(=O)c1ccc(N2CCCC2)c(NS(=O)(=O)c2ccccc2)c1,< 1
25,O=C(Nc1ccc(F)c(C(F)(F)F)c1)Nc1nnc(-c2ccncc2)s1,< 1
